Measurements taken from article PMC12128972, “TYRA-300, an FGFR3-selective inhibitor, promotes bone growth in two FGFR3-driven models of chondrodysplasia” (JCI Insight, 2025).
Several values for one entry are separate records, joined by “and”; a condition that tells them apart may be missing. Equal entries are not always repeated.

How the values were obtained:
[1] = tested on: lumbar vertebrae of Fgfr3^N534K/+ mice; experiment: Fgfr3N534K/+ mice: histology of lumbar vertebrae and intervertebral disc; assay type: in vivo, mouse; conditions: 1.8 mg/kg daily for 21 days
Text: We also analyzed the lumbar vertebrae and intervertebral disc (Figure 5E).
The right femur and lumbar vertebrae segment L4–L6 were collected and fixed in 4% paraformaldehyde, decalcified with ethylenediaminetetraacetic acid (EDTA) 0.5 M (pH 8) for 2 or 3 weeks, and embedded in paraffin. Serial paraffin sections of 5 μm were stained with hematoxylin, eosin, and Safranin O. For immunohistochemistry, sections were labeled with antibodies against collagen type X (BIOCYC ref. [1]-CO097-05-RUO, 1:100 dilution), collagen type I (Novotec, 20151, dilution 1:1,000), pERK (Cell Signaling, 4370S, dilution 1:1,000), and PCNA (Abcam, GR3195972-6, 1:500 dilution) using the Dako Envision Kit. Images were captured with an Olympus PD70-IX2-UCB microscope and CellSens software (Olympus Life Science Solutions). Cells were counted using ImageJ software (NIH, Laboratory for Optical Computational Instrumentation).

[2] = tested on: Fgfr3^Y367C/+ mouse model, which mimics the phenotype of ACH; experiment: Fgfr3Y367C/+ mice: growth, body weight and long bone length (calipers, x-ray); assay type: in vivo; parameters: nasoanal length, individual mice / tail length, individual mice: unit not given here; conditions: for nasoanal length, individual mice / tail length, individual mice / body weight, individual mice: 1.2 mg/kg/d s.c. from day 1
Experimental: In this study, Fgfr3^Y367C/+ mice were administered TYRA-300 daily by subcutaneous injection at a dose of 1.2 mg/kg for 15 days beginning at 1 day of age to evaluate the effects on growth, bone length, and key skeletal parameters, compared with those of vehicle-treated Fgfr3^Y367C/+ mice. Results were also compared with those from vehicle-treated Fgfr3^+/+ (wild-type) mice. […] In Fgfr3^Y367C/+ mice, the […], resulting in disproportionate long bones.
Tg-CMV^Cre/+/Fgfr3^Y367C/+ mice were tattooed and assigned to treatment groups within each litter at 1 day of age (wild-type mice, Fgfr3^Y367/+ mice treated with vehicle, or Fgfr3^Y367/+ mice treated with 1.2 mg/kg TYRA-300). TYRA-300 was dissolved in aqueous HCl (3.5 mM) containing 5% dimethyl sulfoxide (DMSO) and administered subcutaneously to Fgfr3^Y367/+ mice (n = 8) for 15 days. The vehicle was administered to wild-type (n = 10) or Fgfr3^Y367/+ mice (n = 10) for 15 days. Subcutaneous administration was used for this study rather than oral gavage due to the reduced size of the mice. Clinical observations, nasoanal length and tail length measurements were performed every 3 days, and body weights were collected daily.
(§1) Whole body x-ray images were taken of all animals by Faxitron specimen radiography MX-20 (Faxitron X-Ray LLC) following terminal sacrifice. The length of the L4–L6 lumbar vertebra segment was also measured for each animal using calipers, and the height of the L5 vertebral body was measured from Alcian blue/Sirius red images. Long bones and the skull were then excised, and their dimensions were measured using calipers (VWRi819-0013, VWR International). The transverse and sagittal diameters of the foramen magnum were also measured using calipers for the Fgfr3^Y367/+ model, and measured using the μCT images for the Fgfr3^N534K/+ model.

[3] = tested on: skull and foramen magnum of Fgfr3^Y367C/+ mice; experiment: Fgfr3Y367C/+ mice: skull and foramen magnum (calipers, microCT), grade of synchondroses; assay type: in vivo, mouse; parameters: source data of Figure 3I (sheet "3I"): grade of synchondroses: scale not given here
Experimental: Another hallmark of ACH that is observed in Fgfr3^Y367C/+ mice is change in the size and shape of the skull and foramen magnum ([28]). The size of the foramen magnum is of particular clinical importance, as its reduced size can cause compression of the brain stem and spinal cord, resulting in significant morbidity and mortality in infants with ACH ([37]–[40]). To study the effects of TYRA-300 on the skull and foramen magnum in Fgfr3^Y367C/+ mice, macroscopic analyses were performed and μCT images were taken of the mice at the end of study. Changes in the shape of the skull are visible on μCT images in TYRA-300–treated Fgfr3^Y367C/+ mice compared with vehicle-treated Fgfr3^Y367C/+ mice (Figure 3A). […] The skull was further analyzed using the μCT images, which enabled measurement of the anteroposterior length and nasio-occipital length of the skull.
The μCT images also indicate that treatment with TYRA-300 modified the synchondroses at the base of the skull (Figure 3, I and J). […] Overall, the improvement in the size and shape of the foramen magnum with TYRA-300 has important clinical implications for foramen magnum stenosis.
as §1
The heads of all mice were isolated, and skin was stripped before being placed in 70% ethanol at 4°C. μCT images of the skulls were measured on the Skyscan-1272 (Bruker) with the following parameters: 10 μm resolution, 680 ms exposure, 70 kV, 142 μA, and 0.350° rotation step. The μCT data were analyzed using DataViewer and CTAn software (version 1.20.8) to perform postprocessing techniques in 3D. The nasio-occipital length and anteroposterior length of the skull were measured using 2D μCT images.

[4] = tested on: Fgfr3^N534K/+ mouse model of HCH; experiment: Fgfr3N534K/+ mice: long bone length; assay type: in vivo; conditions: 2.4 mg/kg dose, data not shown
[5] = 1.2 mg/kg s.c. daily for 15 days
[6] = 1.2 mg/kg s.c. daily for 15 days from 1 day of age
[7] = Fgfr3Y367C/+ mice + TYRA-300, individual animal values, in mm (unit assumed)
[8] = 1.2 mg/kg s.c. daily for 15 days, macroscopic
[9] = 1.2 mg/kg s.c. daily for 15 days, microCT

In the case of `C[C@@H](Oc1ccc2[nH]nc(-c3ccc(N4CC5(C4)CN(S(C)(=O)=O)C5)nc3)c2c1)c1c(Cl)cncc1Cl` [TYRA-300], the “shape of the intervertebral disc” value [1] is reported as “slightly modified the shape of the intervertebral disc”, the “increase in length of the femur vs vehicle” value [2, 5] is reported as 22.55% and the “increase in length of the humerus vs vehicle” value [2, 5] is reported as 15.52%. The “increase in length of the tibia vs vehicle” value [2, 5] was 33.01%, the “increase in length of the ulna vs vehicle” value [2, 5] was 23.51% and the “increase in nasoanal length vs vehicle-treated mutant mice” value [2, 6] was 17.88%. For the same molecule, the “increase in tail length vs vehicle-treated mutant mice” value [2, 6] was 25.10%, the “increase in body weight vs vehicle-treated mice” value ([2]; 1.2 mg/kg s.c. daily, end of treatment) was 52.9% and the “nasoanal length, individual mice” value ([2]; day 1) was 29 (4×) and 30 and 28 and 31 (2×). The “tail length, individual mice” value ([2]; day 1) was 12 and 13 (6×) and 14, the “body weight, individual mice” value ([2]; day 1, in g (unit assumed)) was 1.56 and 1.58 and 1.46 and 1.33 and 1.47 and 1.4 and 1.37 and 1.6 and the “body weight, individual mice” value ([2]; day 2, in g (unit assumed)) was 1.72 and 1.94 and 1.84 and 1.42 and 1.55 and 1.46 and 1.53 and 2.01. For the same molecule, the “body weight, individual mice” value ([2]; day 3, in g (unit assumed)) was 1.9 and 2.33 and 2.12 and 1.64 and 1.76 and 1.63 and 1.84 and 2.4, the “nasoanal length, individual mice” value ([2]; day 4) was 32 and 34 (2×) and 35 and 31 and 33 (3×) and the “tail length, individual mice” value ([2]; day 4) was 17 (3×) and 18 and 19 and 16 (2×) and 15. The “body weight, individual mice” value ([2]; day 4, in g (unit assumed)) was 2.07 and 2.76 and 2.5 and 1.89 and 2.29 and 1.86 and 2.18 and 2.91, the “body weight, individual mice” value ([2]; day 5) was 2.2 (2×) and 3.12 and 2.97 and 2.23 and 2.52 and 2.53 and 3.27 and the “body weight, individual mice” value ([2]; day 6, in g (unit assumed)) was 2.34 and 3.32 and 3.31 and 2.62 and 2.85 and 2.61 and 2.97 and 3.58. The “nasoanal length, individual mice” value ([2]; day 7) was 35 and 40 and 39 and 34 and 36 (4×), the “tail length, individual mice” value ([2]; day 7) was 25 and 23 (3×) and 21 (2×) and 24 and 22 and the “body weight, individual mice” value ([2]; day 7, in g (unit assumed)) was 2.5 and 3.76 and 3.67 and 3.01 and 3.07 and 3 and 3.31 and 4. The “body weight, individual mice” value ([2]; day 8, in g (unit assumed)) was 2.88 and 4.38 and 4.13 and 3.59 and 3.58 and 3.33 and 3.74 and 4.2, the “body weight, individual mice” value ([2]; day 9) was 3.25 and 4.59 (2×) and 4.2 and 3.92 and 3.86 and 3.97 and 4.66 and the “nasoanal length, individual mice” value ([2]; day 10) was 40 (3×) and 42 (3×) and 38 and 41. For the same molecule, the “tail length, individual mice” value ([2]; day 10) was 25 and 28 and 27 (3×) and 26 (2×) and 29, the “body weight, individual mice” value ([2]; day 10, in g (unit assumed)) was 3.5 and 5.05 and 4.73 and 4.46 and 4.52 and 4.17 and 4.41 and 4.98 and the “body weight, individual mice” value ([2]; day 11, in g (unit assumed)) was 3.7 and 5.46 and 5.06 and 4.65 and 4.64 and 4.44 and 4.99 and 5.57. The “body weight, individual mice” value ([2]; day 12, in g (unit assumed)) was 4.17 and 6.04 and 5.26 and 5.13 and 4.96 and 4.59 and 5.3 and 5.5, the “nasoanal length, individual mice” value ([2]; day 13) was 41 and 46 (2×) and 44 (2×) and 43 and 42 and 45 and the “tail length, individual mice” value ([2]; day 13) was 31 (4×) and 35 (3×) and 32. For the same molecule, the “body weight, individual mice” value ([2]; day 13, in g (unit assumed)) was 4.57 and 6.33 and 5.41 and 5.39, the “nasoanal length, individual mice” value ([2]; day 16) was 42 and 47 (2×) and 48 and 46 (2×) and 44 and 50 and the “tail length, individual mice” value ([2]; day 16) was 33 (2×) and 36 (4×) and 34 and 35. For the same molecule, the “average normalization of long bone length toward wild-type” value ([2]; ACH model, 1.2 mg/kg) was 26%, the “source data of Figure 2E (sheet "2E"): long bone length, bone not given” value [2, 7] was 7.38 and 6.94 and 7.67 and 7.62 and 7.75 and 7.48 and 7.35 and 7.46 and the “source data of Figure 2F (sheet "2F"): long bone length, bone not given” value [2, 7] was 6.52 and 6.4 and 6.85 and 6.87 and 5.9 and 6.57 and 6.71. The “source data of Figure 2G (sheet "2G"): long bone length, bone not given” value [2, 7] was 6.5 and 6.23 and 7.03 and 6.67 and 6.08 and 7.07 and 6.74 and 6.82, the “source data of Figure 2H (sheet "2H"): long bone length, bone not given” value [2, 7] was 5.78 and 5.71 and 6.17 and 5.84 and 6.2 and 5.91 and 5.85 and 6.02 and the “bone growth compared with low-dose infigratinib (0.5 mg/kg)” value ([2]; TYRA-300 1.2 mg/kg, 15 days starting at 1 day of age, comparator data ref 28, 29) was “more bone growth than low-dose infigratinib”. For the same molecule, the “increase in sagittal diameter of the foramen magnum vs vehicle” value [3, 5] was 9.28%, the “increase in transverse diameter of the foramen magnum vs vehicle” value [3, 5] was 13.05% and the “grade of synchondroses (intraoccipital synchondrosis anterior)” value ([3]; 1.2 mg/kg s.c. daily for 15 days, all treated mice) was “II or III”. For the same molecule, the “increase in skull length vs vehicle” value [3, 8] was 10.08%, the “increase in skull width vs vehicle” value [3, 8] was 3.74% and the “increase in anteroposterior length of the skull vs vehicle” value [3, 9] was 8.92%. For the same molecule, the “increase in area of the foramen magnum vs vehicle” value [3, 9] was 25.17%, the “increase in nasio-occipital length of the skull vs vehicle” value [3, 9] was 7.87% and the “source data of Figure 3I (sheet "3I"): grade of synchondroses” value ([3]; Fgfr3Y367C/+ mice + TYRA-300, individual animal values) was 3 and 2.5. For the same molecule, the “phenotypic observations in preliminary dose exploration” value [4] was “phenotypic signs consistent with the Fgfr3^–/– model were observed”.
